Results taken from ChEMBL document CHEMBL1909294, “Translating clinical findings into knowledge in drug safety evaluation--drug induced liver injury prediction system (DILIps)” (PLoS Comput Biol, 2011).

Tests used:
Hepatotoxicity [1] = test system: Hepatotoxicity;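 as to HepSE cholelithiasis: hepatic side effect score for cholelithiasis, drawn from the DILIps training data for predicting drug-induced liver injury; call rule not given here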;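 as to HepSE cirrhosis: cirrhosis hepatic side effect score taken from the DILIps (drug-induced liver injury prediction) training set; call rule not given here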;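 as to HepSE elevated liver function tests: hepatic side effect score for raised liver function tests, as recorded in the DILIps training set used for predicting drug-induced liver injury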; as to HepSE hepatic failure: call rule not given here;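 as to HepSE hepatic necrosis: score of hepatic side effects for hepatic necrosis, drawn from the training data of DILIps, a prediction system for drug-induced liver injury; call rule not given here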;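 as to HepSE hepatomegaly: hepatic side effect score for hepatomegaly, taken from the training set of the DILIps drug-induced liver injury prediction system; call rule not given here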;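 as to HepSE jaundice: Jaundice-related hepatic side-effect score drawn from the training data of the DILIps (drug-induced liver injury prediction system); call rule not given here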
Hepatotoxicity [2] = test system: Hepatotoxicity; remark: listed apart in the source;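 as to HepSE cholelithiasis: hepatic side effect score for cholelithiasis, drawn from the DILIps training data for predicting drug-induced liver injury; call rule not given here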;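 as to HepSE cirrhosis: cirrhosis hepatic side effect score taken from the DILIps (drug-induced liver injury prediction) training set; call rule not given here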;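 as to HepSE elevated liver function tests: hepatic side effect score for raised liver function tests, as recorded in the DILIps training set used for predicting drug-induced liver injury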; as to HepSE hepatic failure: call rule not given here;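 as to HepSE hepatic necrosis: score of hepatic side effects for hepatic necrosis, drawn from the training data of DILIps, a prediction system for drug-induced liver injury; call rule not given here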;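 as to HepSE hepatomegaly: hepatic side effect score for hepatomegaly, taken from the training set of the DILIps drug-induced liver injury prediction system; call rule not given here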
Hepatotoxicity [3] = test system: Hepatotoxicity; remark: listed apart in the source;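 as to HepSE cholelithiasis: hepatic side effect score for cholelithiasis, drawn from the DILIps training data for predicting drug-induced liver injury; call rule not given here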;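 as to HepSE cirrhosis: cirrhosis hepatic side effect score taken from the DILIps (drug-induced liver injury prediction) training set; call rule not given here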;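 as to HepSE elevated liver function tests: hepatic side effect score for raised liver function tests, as recorded in the DILIps training set used for predicting drug-induced liver injury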; as to HepSE hepatic failure: call rule not given here;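 as to HepSE hepatic necrosis: score of hepatic side effects for hepatic necrosis, drawn from the training data of DILIps, a prediction system for drug-induced liver injury; call rule not given here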;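 as to HepSE hepatomegaly: hepatic side effect score for hepatomegaly, taken from the training set of the DILIps drug-induced liver injury prediction system; call rule not given here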
Hepatotoxicity [4] = test system: Hepatotoxicity; remark: listed apart in the source;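 as to HepSE cholelithiasis: hepatic side effect score for cholelithiasis, drawn from the DILIps training data for predicting drug-induced liver injury; call rule not given here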;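 as to HepSE cirrhosis: cirrhosis hepatic side effect score taken from the DILIps (drug-induced liver injury prediction) training set; call rule not given here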;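 as to HepSE elevated liver function tests: hepatic side effect score for raised liver function tests, as recorded in the DILIps training set used for predicting drug-induced liver injury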; as to HepSE hepatic failure: call rule not given here;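 as to HepSE hepatic necrosis: score of hepatic side effects for hepatic necrosis, drawn from the training data of DILIps, a prediction system for drug-induced liver injury; call rule not given here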;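 as to HepSE hepatomegaly: hepatic side effect score for hepatomegaly, taken from the training set of the DILIps drug-induced liver injury prediction system; call rule not given here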
Hepatotoxicity [5] = test system: Hepatotoxicity; remark: listed apart in the source; as to HepSE hepatic failure: call rule not given here
Hepatotoxicity [6] = test system: Hepatotoxicity; remark: listed apart in the source; as to HepSE hepatic failure: call rule not given here
Hepatotoxicity [7] = test system: Hepatotoxicity; remark: listed apart in the source
Hepatotoxicity [8] = test system: Hepatotoxicity; remark: listed apart in the source
Hepatotoxicity [9] = test system: Hepatotoxicity; remark: listed apart in the source
Hepatotoxicity [10] = test system: Hepatotoxicity; remark: listed apart in the source
Hepatotoxicity [11] = test system: Hepatotoxicity; remark: listed apart in the source
Hepatotoxicity [12] = test system: Hepatotoxicity; remark: listed apart in the source
Hepatotoxicity [13] = test system: Hepatotoxicity; remark: listed apart in the source
Hepatotoxicity [14] = test system: Hepatotoxicity; remark: listed apart in the source

Row | Compound | HepSE_cholelithiasis (Hepatotoxicity [1]) | HepSE_hepatic necrosis (Hepatotoxicity [2]) | HepSE_hepatitis (Hepatotoxicity [3]) | HepSE_bilirubinemia (Hepatotoxicity [4]) | HepSE_elevated liver function tests (Hepatotoxicity [5]) | HepSE_hepatic failure (Hepatotoxicity [6]) | HepSE_hepatomegaly (Hepatotoxicity [7]) | HepSE_cirrhosis (Hepatotoxicity [8]) | HepSE_jaundice (Hepatotoxicity [9]) | HepSE_Combined Scores (Hepatotoxicity [10]) | HepSE_cholecystitis (Hepatotoxicity [11]) | HepSE_liver fatty (Hepatotoxicity [12]) | HepSE_liver disease (Hepatotoxicity [13]) | HepSE_liver function tests abnormal (Hepatotoxicity [14]) | also measured
1 | [Ca+2].[H-].[H-] | 0 | 0 | 0 | 0 | 0 | 0 | 0 | 0 | 0 | 0 | 0 | 0 | 0 | 0 | 
2 | CCCN[C@H]1CCc2nc(N)sc2C1 [PRAMIPEXOLE] |  |  |  |  |  |  |  |  |  |  |  |  |  |  | HepSE_cholelithiasis (Hepatotoxicity [1]; Liver): 1; HepSE_hepatic necrosis (Hepatotoxicity [2]; Liver): 0; HepSE_hepatitis (Hepatotoxicity [3]; Liver): 0; HepSE_bilirubinemia (Hepatotoxicity [4]; Liver): 0; HepSE_elevated liver function tests (Hepatotoxicity [5]; Liver): 0; HepSE_hepatic failure (Hepatotoxicity [6]; Liver): 0; HepSE_hepatomegaly (Hepatotoxicity [7]; Liver): 0; HepSE_cirrhosis (Hepatotoxicity [8]; Liver): 0; HepSE_jaundice (Hepatotoxicity [9]; Liver): 0; HepSE_Combined Scores (Hepatotoxicity [10]; Liver): 2; HepSE_cholecystitis (Hepatotoxicity [11]; Liver): 1; HepSE_liver fatty (Hepatotoxicity [12]; Liver): 0; HepSE_liver disease (Hepatotoxicity [13]; Liver): 0; HepSE_liver function tests abnormal (Hepatotoxicity [14]; Liver): 0
3 | O=C(O)CCc1nc(-c2ccccc2)c(-c2ccccc2)o1 [OXAPROZIN] | 0 | 0 | 1 | 0 | 0 | 1 | 0 | 0 | 1 | 3 | 0 | 0 | 0 | 0 | 
4 | CCCCN1C[C@H](O)[C@@H](O)[C@H](O)[C@H]1CO | 0 | 0 | 0 | 0 | 0 | 0 | 0 | 0 | 0 | 0 | 0 | 0 | 0 | 0 | 
5 | CC(=O)N[C@H]1[C@H](OCCCO)OC(C(=O)O)=C[C@@H]1O | 0 | 0 | 0 | 0 | 0 | 0 | 0 | 0 | 0 | 0 | 0 | 0 | 0 | 0 | 
6 | CCCCCCCCCCC[C@@H](C[C@@H]1OC(=O)[C@H]1CCCCCC)OC(=O)[C@H](CC(C)C)NC=O [ORLISTAT] | 0 | 0 | 1 | 0 | 0 | 0 | 0 | 0 | 0 | 1 | 0 | 0 | 0 | 0 | 
7 | COC(=O)[C@H](c1ccccc1Cl)N1CCc2sccc2C1 [CLOPIDOGREL] |  |  |  |  |  |  |  |  |  |  |  |  |  |  | HepSE_cholelithiasis (Hepatotoxicity [1]; Liver): 0; HepSE_hepatic necrosis (Hepatotoxicity [2]; Liver): 0; HepSE_hepatitis (Hepatotoxicity [3]; Liver): 1; HepSE_bilirubinemia (Hepatotoxicity [4]; Liver): 1; HepSE_elevated liver function tests (Hepatotoxicity [5]; Liver): 0; HepSE_hepatic failure (Hepatotoxicity [6]; Liver): 1; HepSE_hepatomegaly (Hepatotoxicity [7]; Liver): 0; HepSE_cirrhosis (Hepatotoxicity [8]; Liver): 0; HepSE_jaundice (Hepatotoxicity [9]; Liver): 0; HepSE_Combined Scores (Hepatotoxicity [10]; Liver): 4; HepSE_cholecystitis (Hepatotoxicity [11]; Liver): 0; HepSE_liver fatty (Hepatotoxicity [12]; Liver): 1; HepSE_liver disease (Hepatotoxicity [13]; Liver): 0; HepSE_liver function tests abnormal (Hepatotoxicity [14]; Liver): 0
8 | CC[C@H]1OC(=O)[C@H](C)[C@@H](O[C@H]2C[C@@](C)(OC)[C@@H](O)[C@H](C)O2)[C@H](C)[C@@H](O[C@@H]2O[C@H](C)C[C@H](N(C)C)[C@H]2O)[C@](C)(O)C[C@@H](C)CN(C)[C@H](C)[C@@H](O)[C@]1(C)O [AZITHROMYCIN] | 0 | 1 | 1 | 0 | 0 | 1 | 0 | 0 | 1 | 5 | 0 | 0 | 0 | 1 | 
9 | Nc1nc(Cl)nc2c1ncn2[C@@H]1O[C@H](CO)[C@@H](O)[C@@H]1F [CLOFARABINE] | 0 | 0 | 0 | 1 | 0 | 0 | 1 | 0 | 1 | 3 | 0 | 0 | 0 | 0 | 
10 | C#CCN(C)[C@H](C)Cc1ccccc1 [SELEGILINE] | 1 | 0 | 1 | 1 | 0 | 0 | 0 | 0 | 0 | 5 | 1 | 0 | 0 | 1 | 
11 | Nc1cc(N2CCCCC2)nc(N)[n+]1[O-] [MINOXIDIL] | 0 | 0 | 0 | 0 | 0 | 0 | 0 | 0 | 0 | 0 | 0 | 0 | 0 | 0 | 
12 | CC(C)CN(C[C@@H](O)[C@H](Cc1ccccc1)NC(=O)O[C@H]1CCOC1)S(=O)(=O)c1ccc(N)cc1 | 0 | 0 | 0 | 0 | 0 | 0 | 0 | 0 | 0 | 0 | 0 | 0 | 0 | 0 | 
13 | CN(Cc1ccc(C(C)(C)C)cc1)Cc1cccc2ccccc12 [BUTENAFINE] | 0 | 0 | 0 | 0 | 0 | 0 | 0 | 0 | 0 | 0 | 0 | 0 | 0 | 0 | 
